14 molecules from US20240067632A1, “WEE1 Degrading Compounds and Uses Thereof” (Bristol-Myers Squibb Company, priority 2022, published 2024) can be followed below.

For one assay, the system named is MKN45 cells. Put plainly: MKN45 cell proliferation assay (Cell-Titer-Glo, 120 h). The format is cell-based. To be noted: for EC50: Homo sapiens, MKN-45, 120 h, Cell-Titer-Glo, read-out: MKN45 Cell Prolif. 120 hr (EC50); for MKN45 Cell Prolif. 120 hr (Ymin-Obs): minimal percent of DMSO control observed in the concentrations tested. The method, boiled down: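 Cells seeded at 400/well onto pre-printed 10-point half-log dilutions (top 1 or 10 uM, 0.1% DMSO final), in triplicate, and grown 120 h at 37 C. Viability by Cell-Titer-Glo luminescence, blank-subtracted and normalised to DMSO; EC50 from four-parameter logistic fit, with observed minimal % of control recorded as Ymin-obs.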

Another assay has as its target T1, WEE1 (Homo sapiens, UniProt P30291+Q96SW2).
T1 construct: C-terminal ePL-tagged (DiscoverX, Fremont, CA) full-length WEE1 expression construct; expressed in transfected cells; host or cells: LentiX-HEK293T (Invitrogen), lentiviral transduction; co-expressing GSPT1-GN (G576N, lacking the first 158 amino acids)
Kind of assay: WEE1-ePL degradation assay (LentiX-WEE1-ePL-GSPT1-ND cells, InCELL Hunter luminescence, 4 h). The note with it: 293T-LentiX WEE1-ePL cells; for DC50: read-out: 293T-LentiX WEE1-ePL Degradation 4 hr (EC50). The format is cell-based. The method, boiled down:
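Luminescent readout (InCELL Hunter, 30 min RT) of WEE1-ePL levels in transduced HEK293T cells after 4 h compound exposure at 37 °C. Dosing: 10 points, 3-fold steps, top 1 uM or 10 uM. EC50 from four-parameter logistic fit; Ymax set by DMSO.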

Setting [1] is: lower limit of the fit (Ymin=0 luciferase inhibitor, Ymax DMSO control).
Where [2] appears, read: lower limit of the fit (0 = luciferase inhibitor, Ymax = DMSO control).

Where two headings read alike, the source gives them in different places.

In the case of `O=C1CC[C@H](N2Cc3cc(O[C@@H]4CN(Cc5ccc6nc([C@@H]7CCOC7)ccc6c5)CC4(F)F)ccc3C2=O)C(=O)N1` [(3S)-3-(5-{[(3R)-4,4-difluoro-1-({2-[(3S)-oxolan-3-yl]quinolin-6-yl}methyl)pyrrolidin-3-yl]oxy}-1-oxo-2,3-dihydro-1H-isoindol-2-yl)piperidine-2,6-dione], in the assay on MKN45 cells, the EC50 came to 6.36 nM and the “MKN45 Cell Prolif. 120 hr (Ymin-Obs)” value is 8.017. The “293T-LentiX WEE1-ePL Degradation 4 hr (Ymin)” value at WEE1 (setting [1]) is on record as 30.03. Moreover, on WEE1, the DC50 came to 8.72 nM.
For `CO[C@H]1CCC[C@@H]1c1ccc2cc(CN3CC[C@H](Oc4ccc5c(c4)CN(C4CCC(=O)NC4=O)C5=O)C3)ccc2n1` (stereo partly drawn) [3-(5-{[(3S)-1-({2-[(1R,2S)-2-methoxycyclopentyl]quinolin-6-yl}methyl)pyrrolidin-3-yl]oxy}-1-oxo-2,3-dihydro-1H-isoindol-2-yl)piperidine-2,6-dione], in the assay on MKN45 cells, the EC50 was determined as 5.54 nM and the “MKN45 Cell Prolif. 120 hr (Ymin-Obs)” value was found to be 8.858. The “293T-LentiX WEE1-ePL Degradation 4 hr (Ymin)” value at WEE1 (setting [1]) came to 30.79. Besides, the DC50 on WEE1 worked out at 4.34 nM.
As to `CO[C@H]1C[C@H](c2ccc3cc(CN4CC[C@H](Oc5ccc6c(c5)CN(C5CCC(=O)NC5=O)C6=O)C4)ccc3n2)C1` (stereo partly drawn) [drawing 578, 3-(1-oxo-5-{[(3S)-1-({2-[(1r,3r)-3-methoxycyclobutyl]quinolin-6-yl}methyl)pyrrolidin-3-yl]oxy}-2,3-dihydro-1H-isoindol-2-yl)piperidine-2,6-dione], the EC50 in the assay with MKN45 cells (growth inhibition) is 3.3 nM. Further, the “MKN45 Cell Prolif. 120 hr (Ymin-Obs)” value in the assay on MKN45 cells is given as 7.412. The “293T-LentiX WEE1-ePL Degradation 4 hr (Ymin)” value at WEE1 (setting [2]) was determined as 27.12. For the same molecule, the DC50 on WEE1 was determined as 3.61 nM.
Take `O=C1CC[C@H](N2Cc3cc(O[C@H]4CCN(Cc5ccc6nc([C@@H]7CCOC7)ccc6c5)C4)ccc3C2=O)C(=O)N1` [(3S)-3-(1-oxo-5-{[(3S)-1-({2-[(3S)-oxolan-3-yl]quinolin-6-yl}methyl)pyrrolidin-3-yl]oxy}-2,3-dihydro-1H-isoindol-2-yl)piperidine-2,6-dione]: the EC50 in the assay on MKN45 cells (growth inhibition) was found to be 4.09 nM. Besides, the “MKN45 Cell Prolif. 120 hr (Ymin-Obs)” value in the assay with MKN45 cells stood at 9.489. The “293T-LentiX WEE1-ePL Degradation 4 hr (Ymin)” value at WEE1 (setting [2]) was determined as 30. The DC50 at WEE1 was 2.13 nM.
The like results for `O=C1CCC(N2Cc3cc(O[C@H]4CCN(Cc5ccc6nc(-n7ccccc7=O)ccc6c5)C4)ccc3C2=O)C(=O)N1` (stereo partly drawn) [3-(1-oxo-5-{[(3S)-1-{[2-(2-oxo-1,2-dihydropyridin-1-yl)quinolin-6-yl]methyl}pyrrolidin-3-yl]oxy}-2,3-dihydro-1H-isoindol-2-yl)piperidine-2,6-dione] were, in that order, 1.93 nM, 8.805, 35 and 2.27 nM.
Turning to `O=C1CCC(N2C(=O)c3ccc(O[C@H]4CCN(Cc5cccc6ncccc56)C4)cc3C2=O)C(=O)N1` (stereo partly drawn) [2-(2,6-dioxopiperidin-3-yl)-5-{[(3S)-1-[(quinolin-5-yl)methyl]pyrrolidin-3-yl]oxy}-2,3-dihydro-1H-isoindole-1,3-dione], the EC50 with MKN45 cells (growth inhibition) was 2230 nM. In addition, the “MKN45 Cell Prolif. 120 hr (Ymin-Obs)” value with MKN45 cells is recorded as 44.93. Besides, at WEE1 (setting [2]), the “293T-LentiX WEE1-ePL Degradation 4 hr (Ymin)” value was found to be 30.52. For the same molecule, at WEE1, the DC50 came out at 79.2 nM.
Take `O=C1CC[C@H](N2Cc3cc(O[C@@H]4CN(Cc5ccc6nc([C@H]7CCOC7)ccc6c5)CC4(F)F)ccc3C2=O)C(=O)N1` [(3S)-3-(5-{[(3R)-4,4-difluoro-1-({2-[(3R)-oxolan-3-yl]quinolin-6-yl}methyl)pyrrolidin-3-yl]oxy}-1-oxo-2,3-dihydro-1H-isoindol-2-yl)piperidine-2,6-dione]: in the assay with MKN45 cells, the EC50 turned out to be 7.63 nM and the “MKN45 Cell Prolif. 120 hr (Ymin-Obs)” value came out at 8.319. In addition, the “293T-LentiX WEE1-ePL Degradation 4 hr (Ymin)” value at WEE1 (setting [1]) is 28.37. In addition, the DC50 on WEE1 is 11.7 nM.
Turning to `C#Cc1ncc2cc(CN3CC[C@H](Oc4ccc5c(c4)CN(C4CCC(=O)NC4=O)C5=O)C3)ccc2n1` (stereo partly drawn) [3-(5-{[(3S)-1-[(2-ethynylquinazolin-6-yl)methyl]pyrrolidin-3-yl]oxy}-1-oxo-2,3-dihydro-1H-isoindol-2-yl)piperidine-2,6-dione], the EC50 in the assay on MKN45 cells (growth inhibition) is 70.2 nM. In addition, in the assay with MKN45 cells, the “MKN45 Cell Prolif. 120 hr (Ymin-Obs)” value is 28.856. Also, the “293T-LentiX WEE1-ePL Degradation 4 hr (Ymin)” value on WEE1 (setting [2]) turned out to be 45. The DC50 on WEE1 worked out at 16.5 nM.
The like results for `O=C1CCC(N2Cc3cc(O[C@H]4CCN(Cc5cc6cc([C@H]7CCOC7)ccc6cn5)C4)ccc3C2=O)C(=O)N1` (stereo partly drawn) [3-(1-oxo-5-{[(3S)-1-({6-[(3R)-oxolan-3-yl]isoquinolin-3-yl}methyl)pyrrolidin-3-yl]oxy}-2,3-dihydro-1H-isoindol-2-yl)piperidine-2,6-dione] were, in that order, 3.39 nM, 6.69, 28 and 1.99 nM.
The like results for `O=C1CCC(N2Cc3cc(O[C@H]4CCN(Cc5ccc6nc(N7CCC[C@]78CCOC8)ccc6c5)C4)ccc3C2=O)C(=O)N1` (stereo partly drawn) [3-(5-{[(3S)-1-({2-[(5R)-7-oxa-1-azaspiro[4.4]nonan-1-yl]quinolin-6-yl}methyl)pyrrolidin-3-yl]oxy}-1-oxo-2,3-dihydro-1H-isoindol-2-yl)piperidine-2,6-dione] were, in that order, 10.9 nM, 17.85, 46 and 6.81 nM.
On to `O=C1CCC(N2Cc3cc(O[C@H]4CCN(Cc5cc6c(cn5)OCCC6)C4)ccc3C2=O)C(=O)N1` (stereo partly drawn) [3-(1-oxo-5-{[(3S)-1-({2H,3H,4H-pyrano[2,3-c]pyridin-6-yl}methyl)pyrrolidin-3-yl]oxy}-2,3-dihydro-1H-isoindol-2-yl)piperidine-2,6-dione], for which the EC50 in the assay on MKN45 cells (growth inhibition) is 153 nM. Moreover, the “MKN45 Cell Prolif. 120 hr (Ymin-Obs)” value with MKN45 cells is 12.988. Moreover, the “293T-LentiX WEE1-ePL Degradation 4 hr (Ymin)” value at WEE1 (setting [2]) was 33. Besides, the DC50 on WEE1 amounted to 12.3 nM.
The like results for `CC(C)(O)c1ccc2cc(CN3CC[C@H](Oc4ccc5c(c4)CN(C4CCC(=O)NC4=O)C5=O)C3)ncc2c1` (stereo partly drawn) [3-(5-{[(3S)-1-{[7-(2-hydroxypropan-2-yl)isoquinolin-3-yl]methyl}pyrrolidin-3-yl]oxy}-1-oxo-2,3-dihydro-1H-isoindol-2-yl)piperidine-2,6-dione] were, in that order, 16.2 nM, 7.18, 31 and 5.41 nM.
On to `O=C1CCC(N2Cc3cc(O[C@H]4CCN(Cc5ccc6nc(N7C[C@H]8C[C@@H]7CO8)ccc6c5)C4)ccc3C2=O)C(=O)N1` (stereo partly drawn) [3-(5-{[(3S)-1-({2-[(1R,4R)-2-oxa-5-azabicyclo[2.2.1]heptan-5-yl]quinolin-6-yl}methyl)pyrrolidin-3-yl]oxy}-1-oxo-2,3-dihydro-1H-isoindol-2-yl)piperidine-2,6-dione], for which the EC50 in the assay with MKN45 cells (growth inhibition) turned out to be 6.19 nM. In the assay with MKN45 cells, the “MKN45 Cell Prolif. 120 hr (Ymin-Obs)” value is on record as 9.745. In addition, the “293T-LentiX WEE1-ePL Degradation 4 hr (Ymin)” value at WEE1 (setting [2]) turned out to be 33. Besides, on WEE1, the DC50 stood at 5.67 nM.
On to `C[C@@H]1CN(Cc2cc(F)c3nc([C@H]4CCOC4)ccc3c2)C[C@H]1Oc1ccc2c(c1)CN([C@H]1CCC(=O)NC1=O)C2=O` [(3S)-3-(5-{[(3S,4R)-1-({8-fluoro-2-[(3R)-oxolan-3-yl]quinolin-6-yl}methyl)-4-methylpyrrolidin-3-yl]oxy}-1-oxo-2,3-dihydro-1H-isoindol-2-yl)piperidine-2,6-dione], for which, in the assay on MKN45 cells, the EC50 came out at 0.955 nM and the “MKN45 Cell Prolif. 120 hr (Ymin-Obs)” value is reported as 7.865. Besides, the “293T-LentiX WEE1-ePL Degradation 4 hr (Ymin)” value on WEE1 (setting [1]) is 26.61. Moreover, the DC50 at WEE1 worked out at 0.985 nM.

In general, EC50 refers to the concentration at which the effect is half-maximal.
